21 compounds from patent publication US20240376073A1 (Hoffmann-La Roche Inc., priority 2021, published 2024) can be followed below.

Counter-ions that a name gives are not always drawn.

In one assay the test system is Acinetobacter baumannii ATCC17961. In words: Antimicrobial susceptibility testing: 90% growth inhibitory concentration (IC90) determination. The following applies: Acinetobacter baumannii ATCC17961; Iso-Sensitest broth; growth by OD 600 nm over 16 h; 35±2° C.; read-out: ATCC 17961 IC90. The class given is cell-based. In a few lines:
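Twofold serial dilutions (e.g. 50 to 0.097 μM final) in Iso-Sensitest broth, inoculated at ~5×10^(5) CFU/ml, incubated at 35±2° C. OD600 read every 20 min over 16 h; IC90 derived from growth inhibition during logarithmic growth.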
For `Cn1c(-c2ccc(OCC#N)c(F)c2F)cnc1C(=O)Nc1ccc(C(=O)NCCNC(=O)C[N+](C)(C)C)c(Cl)c1` [Example A14, [2-[2-[2-chloro-4-[[5-[4-(cyanomethoxy)-2,3-difluoro-phenyl]-1-methyl-imidazole-2-carbonyl]amino]benzoyl]amino]ethylamino]-2-oxo-ethyl]-trimethyl-ammonium formate], the IC90 (commonly the concentration at which the effect reaches the 90% level) worked out at 600 nM. In the case of `COc1ccc(-c2cnc(C(=O)Nc3ccc(C(=O)N[C@H]4[C@@H]5CN(C(=O)N[C@@H]6C[N+](C)(C)C[C@H]6O)C[C@@H]54)c(Cl)c3)n2C)c(F)c1F` [Example B55, (exo)-6-[[2-chloro-4-[[5-(2,3-difluoro-4-methoxy-phenyl)-1-methyl-imidazole-2-carbonyl]amino]benzoyl]amino]-N-[(trans)-4-hydroxy-1,1-dimethyl-pyrrolidin-1-ium-3-yl]-3-azabicyclo[3.1.0]hexane-3-carboxamide formate], the IC90 turned out to be 150 nM. On to `COc1ccc(-c2cnc(C(=O)Nc3ccc(C(=O)N4C[C@@H]5CN(C(=O)[C@@H]6CC[N+](C)(C)C6)C[C@@H]5C4)c(Cl)c3)n2C)c(F)c1F` [Example B18, N-[4-[(3aS,6aR)-5-[(3R)-1,1-dimethylpyrrolidin-1-ium-3-carbonyl]-1,3,3a,4,6,6a-hexahydropyrrolo[3,4-c]pyrrole-2-carbonyl]-3-chloro-phenyl]-5-(2,3-difluoro-4-methoxy-phenyl)-1-methyl-imidazole-2-carboxamide; formate], for which the IC90 was 300 nM. The same measure, in the same setting: the figure for `Cn1c(-c2ccc(OC(F)F)c(F)c2F)cnc1C(=O)Nc1ccc(C(=O)N2CCN(C(=O)C3CC[N+](C)(CC4CCNC4)CC3)CC2)c(Cl)c1` (stereo not drawn) [Example C14, N-[3-chloro-4-[4-[1-methyl-1-(pyrrolidin-3-yl-methyl)piperidin-1-ium-4-carbon-yl]piperazine-1-carbonyl]phenyl]-5-[4-(difluoro-methoxy)-2,3-difluoro-phenyl]-1-methyl-imid-azole-2-carbox-amide; formic acid; formate] is 49 nM; for `Cn1c(-c2ccc(OC(F)F)c(F)c2F)cnc1C(=O)Nc1ccc(C(=O)N2CCN(C(=O)[C@H]3[C@@H]4C[N+](C)(CC(N)=O)C[C@@H]43)CC2)c(Cl)c1` (mixture of isomers) [Example C4, N-[4-[4-[(1R,5S)-3-(2-amino-2-oxo-ethyl)-3-methyl-3-azoniabi-cyclo[3.1.0]-hexane-6-carbonyl]-piperazine-1-carbonyl]-3-chloro-phenyl]-5-[4-(difluoro-methoxy)-2,3-difluoro-phen-yl]-1-methyl-imidazole-2-carboxamide; formate] it is 31 nM. Still for that read-out and setting: the figure for `Cn1c(-c2ccc(OC(F)F)c(F)c2F)cnc1C(=O)Nc1ccc(C(=O)N2CCN(C(=O)C3CC[N+](C)(CC(=O)O)CC3)CC2)c(Cl)c1` (stereo not drawn) [Example C31, 2-[4-[4-[2-chloro-4-[[5-[4-(difluorometh-oxy)-2,3-difluoro-phen-yl]-1-methyl-imidazole-2-carbonyl]amino]-benzoyl]piper-azine-1-carbon-yl]-1-methyl-piperidin-1-ium-1-yl]acetic acid; 2,2,2-trifluoro-acetate] is 410 nM. On the same count and under the same terms, for `COc1ccc(-c2cnc(C(=O)Nc3ccc(C(=O)N4CCN(C(=O)C[N+]5(C)CCOCC5)CC4)c(Cl)c3)n2C)c(F)c1F` [Example C27, N-[3-chloro-4-[4-[2-(4-methyl-morpholin-4-ium-4-yl)acetyl]-piperazine-1-carbonyl]phenyl]-5-(2,3-difluoro-4-methoxy-phenyl)-1-methyl-imid-azole-2-carbox-amide; formate] the value was 120 nM; for `COc1ccc(-c2cnc(C(=O)Nc3ccc(C(=O)N4CCN(C(=O)C[N+](C)(C)C)CC4)c(C)c3)n2C)c(F)c1F` [Example B21, [2-[4-[4-[5-(2,3-difluoro-4-methoxy-phenyl)-1-methyl-imidazole-2-carbonyl]amino]-2-methyl-benzoyl]piperazin-1-yl]-2-oxo-ethyl]-trimethyl-ammonium; formate], 280 nM. In the case of `COc1ccc(-c2cnc(C(=O)Nc3ccc(C(=O)N4CCN(C(=O)CCC[N+](CCCN)(CCCN)CC(=O)O)CC4)c(Cl)c3)n2C)c(F)c1F` [Example C34, bis(3-aminopropyl)-(carboxymethyl)-[4-[4-[2-chloro-4-[[5-(2,3-difluoro-4-methoxy-phenyl)-1-methyl-imidazole-2-carbonyl]amino]benzoyl]piperazin-1-yl]-4-oxo-butyl]ammonium; formate], the IC90 is 570 nM. On the same count and under the same terms, the figure for `COc1ccc(-c2cnc(C(=O)Nc3ccc(C(=O)NCc4cnn(CC(=O)N5CC[N+](C)(C)CC5)c4)c(Cl)c3)n2C)c(F)c1F` [Example B32, N-[3-chloro-4-[1-[2-(4,4-dimethylpiperazin-4-ium-1-yl)-2-oxo-ethyl]pyrazol-4-yl]methylcarbamoyl]phenyl]-5-(2,3-difluoro-4-methoxy-phenyl)-1-methyl-imidazole-2-carboxamide; formate] is 200 nM. Turning to `COc1ccc(-c2cnc(C(=O)Nc3ccc(C(=O)N4CCC(NC(=O)C[N+](C)(C)CC(N)=O)CC4)c(Cl)c3)n2C)c(F)c1F` [Example B5, (2-amino-2-oxo-ethyl)-[2-[1-[2-chloro-4-[5-(2,3-difluoro-4-methoxy-phenyl)-1-methyl-imidazole-2-carbonyl]amino]benzoyl]-4-piperidyl]amino]-2-oxo-ethyl]-dimethyl-ammonium; formate], the IC90 is 120 nM. Same read-out and setting: for `COc1ccc(-c2cnc(C(=O)Nc3ccc(C(=O)N[C@H]4C[C@@H](NC(=O)C[N+](C)(C)C)C4)c(Cl)c3)n2C)c(F)c1F` [Example A10, [2-[[3-[[2-Chloro-4-[[5-(2,3-difluoro-4-methoxy-phenyl)-1-methyl-imidazole-2-carbonyl]amino]benzoyl]amino]cyclobutyl]amino]-2-oxo-ethyl]-trimethyl-ammonium formate] the value was 84 nM; for `Cn1c(-c2ccc(OCF)c(F)c2F)cnc1C(=O)Nc1ccc(C(=O)N2CCN(C(=O)[C@H]3[C@@H]4C[N+](C)(CC(=O)O)C[C@@H]43)CC2)c(Cl)c1` (mixture of isomers) [Example C30, 2-[(1R,5S)-6-[4-[2-chloro-4-[[5-[2,3-difluoro-4-(fluoromethoxy)phenyl]-1-meth-yl-imidazole-2-carbonyl]amino]-benzoyl]piper-azine-1-carbon-yl]-3-methyl-3-azoniabicyclo-[3.1.0]hexan-3-yl]acetic acid; 2,2,2-trifluoro-acetate], 540 nM. On the same count and under the same terms, the figure for `Cc1cc(NC(=O)c2ncc(-c3ccc(OCC#N)c(F)c3F)n2C)ccc1C(=O)N[C@H]1C[C@@H](NCC[N+](C)(C)C)C1` [Example A19, 2-[[3-[[4-[[5-[4-(cyanomethoxy)-2,3-difluoro-phenyl]-1-methyl-imidazole-2-carbonyl]amino]-2-methyl-benzoyl]amino]cyclobutyl]amino]ethyl-trimethyl-ammonium formate] is 1200 nM.

For the compound `COc1ccc(-c2cnc(C(=O)Nc3ccc(C(=O)NCc4cn(CCO)[n+](C)c4)c(Cl)c3)n2C)c(F)c1F` [Example A20, N-[3-chloro-4-[[1-(2-hydroxyethyl)-2-methyl-pyrazol-2-ium-4-yl]methylcarbamoyl]phenyl]-5-(2,3-difluoro-4-methoxy-phenyl)-1-methyl-imidazole-2-carboxamide;formate], the IC90 turned out to be 320 nM. Turning to `COc1ccc(-c2cnc(C(=O)Nc3ccc(C(=O)N4CCN(C(=O)C[N+](C)(C)CC(N)=O)CC4)c(C)c3)n2C)c(F)c1F` [Example B1, (2-Amino-2-oxo-ethyl)-[2-[4-[4-[[5-(2,3-difluoro-4-methoxy-phenyl)-1-methyl-imidazole-2-carbonyl]amino]-2-methyl-benzoyl]piperazin-1-yl]-2-oxo-ethyl]-dimethyl-ammonium;formate], the IC90 came out at 280 nM. With `COc1ccc(-c2cnc(C(=O)Nc3ccc(C(=O)N4CCN(C(=O)[C@@H]5COCC[N+]5(C)C)CC4)c(Cl)c3)n2C)c(F)c1F` [Example B35, N-[3-chloro-4-[4-[(3S)-4,4-dimethylmorpholin-4-ium-3-carbonyl]piperazine-1-carbonyl]phenyl]-5-(2,3-difluoro-4-methoxy-phenyl)-1-methyl-imidazole-2-carboxamide; iodide], the IC90 is 130 nM. The same measure, in the same setting: for `Cn1c(-c2ccc(OC(F)F)c(F)c2F)cnc1C(=O)Nc1ccc(C(=O)N2CCN(C(=O)C[N+](C)(C)C)CC2)c(Cl)c1` [Example B12, [2-[4-[2-chloro-4-[[5-[4-(difluoromethoxy)-2,3-difluoro-phenyl]-1-methyl-imidazole-2-carbonyl]amino]benzoyl]piperazin-1-yl]-2-oxo-ethyl]-trimethyl-ammonium; formate] the value was 51 nM.

Staying with this assay, now noted: Acinetobacter baumannii, ATCC17961, 16 h, read-out: ATCC 17961 IC90, Acinetobacter baumannii ATCC17961; Iso-Sensitest broth; growth by OD 600 nm over 16 h; 35±2° C.
As for `COc1ccc(-c2cnc(C(=O)Nc3ccc(C(=O)N4CCN(C(=O)N5C[C@@H]6C[N+](CCCN)(CC(=O)O)C[C@@H]6C5)CC4)c(Cl)c3)n2C)c(F)c1F` (stereo partly drawn) [Example C37, hydrochloride], the IC90 worked out at 340 nM. As to `COc1ccc(-c2cnc(C(=O)Nc3ccc(C(=O)N4CCN(C(=O)[C@@H]5CC[C@H](O)C[N+]5(C)C)CC4)c(Cl)c3)n2C)c(F)c1F` [Example B46, N-[3-chloro-4-[4-[(2S,5S)-5-hydroxy-1,1-dimethyl-piperidin-1-ium-2-carbonyl]piperazine-1-carbonyl]phenyl]-5-(2,3-difluoro-4-methoxy-phenyl)-1-methyl-imidazole-2-carboxamide; formate], the IC90 worked out at 120 nM. Still for that read-out and setting: for `COc1ccc(-c2cnc(C(=O)Nc3ccc(C(=O)N4CCN(C(=O)[C@@H]5C[C@@H](CO)C[N+]5(C)C)CC4)c(Cl)c3)n2C)c(F)c1F` [Example B42, N-[3-chloro-4-[4-[(2S,4R)-4-(hydroxymethyl)-1,1-dimethyl-pyrrolidin-1-ium-2-carbonyl]piperazine-1-carbonyl]phenyl]-5-(2,3-difluoro-4-methoxy-phenyl)-1-methyl-imidazole-2-carboxamide; formate] the value was 140 nM.
